Measurements published in patent publication EP2607478A1, “Phenanthroline treated MSC” (Universiteit Twente, priority 2011, dated 2013).

Tested on: MSCs
Assay: Whole genome expression analysis (Illumina microarray) of treated MSCs
Format: cell-based, Human
Description: MSCs were seeded in T25 flasks at 5000 cells/cm^2 and allowed to attach overnight in proliferation medium. […] After 48 hours, RNA was isolated as described above. From 500 ng of RNA, cRNA was synthesized using the Illumina TotalPrep RNA amplification Kit (Ambion), according to the manufacturer's protocol and the quality of RNA and cRNA was verified on a Bioanalyzer 2100 (Agilent). Microarrays were performed using Illumina HT-12 v4 expression Beadchips, according to the manufacturer's protocol. Briefly, 750 ng of cRNA was hybridized on the array overnight after which the array was washed and blocked. Then, by addition of streptavidin Cy-3 a fluorescent signal was developed. Arrays were scanned on an Illumina iScan reader and raw intensity values were background corrected in GenomeStudio (Illumina). Further data processing and statistical testing were performed with R and Bioconductor statistical software (www.bioconductor.org), using package lumi. Raw intensity values were transformed using variance stabilization and a quantile normalization was performed. A linear modelling approach with empirical Bayesian methods, as implemented in Limma package (54), was applied for differential expression analysis of the resulting probe-level expression values. A gene list, containing only those genes with an absolute 1.5-fold change between different treatments, was uploaded to Ingenuity Pathway Analysis (IPA) software and used for core analysis. Pathways or networks with a p-value of 0.05 were considered statistically significant.

With CC(=O)N(O)CCCCCNC(=O)CCC(=O)N(O)CCCCCNC(=O)CCC(=O)N(O)CCCCCN [DFO, reference compound] the “interleukin-8 (Il-8) gene expression” value (MSCs treated for two days, 150 µM DFO or 200 µM PHE) was “did not affect this gene at all”, the “expression of HRE-containing genes (metabolism, cell growth and survival, endothelial genes)” value (MSCs treated for two days, 150 µM DFO or 200 µM PHE, relative to basic medium) was “increased expression” and the “logFC(D142_ DFO - D142_BAS) NTN4” value (ProbeID ILMN 2113490, DFO versus Bas) was 2,23. For the same molecule, the “logFC(D142_ DFO - D142_BAS) HIST1H2BD” value (ProbeID ILMN_1651496, DFO versus Bas) was 3,33, the “logFC(D142_ DFO - D142_BAS) PFKFB4” value (ProbeID ILMN_1653292, DFO versus Bas) was 3,53 and the “logFC(D142_ DFO - D142_BAS) FZD2” value (ProbeID ILMN_1653711, DFO versus Bas) was -2,10. For the same molecule, the “logFC(D142_ DFO - D142_BAS)” value (ProbeID ILMN_1655796, DFO versus Bas) was 2,46, the “logFC(D142_ DFO - D142_BAS) PLAU” value (ProbeID ILMN_1656057, DFO versus Bas) was -2,69 and the “logFC(D142_ DFO - D142_BAS) C1orf198” value (ProbeID ILMN_1657683, DFO versus Bas) was -2,30. The “logFC(D142_ DFO - D142_BAS) KRTAP2-1” value (ProbeID ILMN_1658448, DFO versus Bas) was 2,71, the “logFC(D142_ DFO - D142_BAS) SLC2A1” value (ProbeID ILMN_1659027, DFO versus Bas) was 3,46 and the “logFC(D142_ DFO - D142_BAS) HIST2H2AA3” value (ProbeID ILMN_1659047, DFO versus Bas) was 2,07. For the same molecule, the “logFC(D142_ DFO - D142_BAS) C7orf68” value (ProbeID ILMN_1659990, DFO versus Bas) was 3,04, the “logFC(D142_ DFO - D142_BAS) LOC728285” value (ProbeID ILMN_1660067, DFO versus Bas) was 2,89 and the “logFC(D142_ DFO - D142_BAS) PFKFB3” value (ProbeID ILMN_1660847, DFO versus Bas) was 2,48. For the same molecule, the “logFC(D142_ DFO - D142_BAS) DDIT4” value (ProbeID ILMN_1661599, DFO versus Bas) was 4,37, the “logFC(D142_ DFO - D142_BAS) CDC20” value (ProbeID ILMN_1663390, DFO versus Bas) was -3,40 and the “logFC(D142_ DFO - D142_BAS) MGC87042” value (ProbeID ILMN_1663575, DFO versus Bas) was -2,17. The “logFC(D142_ DFO - D142_BAS) PPP1R14C” value (ProbeID ILMN_1664855, DFO versus Bas) was 2,96, the “logFC(D142_ DFO - D142_BAS) ERRFI1” value (ProbeID ILMN_1665510, DFO versus Bas) was 2,53 and the “logFC(D142_ DFO - D142_BAS) C1orf24” value (ProbeID ILMN_1667966, DFO versus Bas) was 2,70. For the same molecule, the “logFC(D142_ DFO - D142_BAS) PPM1D” value (ProbeID ILMN_1670875, DFO versus Bas) was 2,06, the “logFC(D142_ DFO - D142_BAS) ACTA2” value (ProbeID ILMN_1671703, DFO versus Bas) was -2,61 and the “logFC(D142_ DFO - D142_BAS) JAM2” value (ProbeID ILMN_1672350, DFO versus Bas) was 2,05. The “logFC(D142_ DFO - D142_BAS) TFRC” value (ProbeID ILMN_1674243, DFO versus Bas) was 2,31, the “logFC(D142_ DFO - D142_BAS) MTHFD2” value (ProbeID ILMN_1674706, DFO versus Bas) was 2,79 and the “logFC(D142_ DFO - D142_BAS) MT3” value (ProbeID ILMN_1675947, DFO versus Bas) was 3,00. For the same molecule, the “logFC(D142_ DFO - D142_BAS) DDIT3” value (ProbeID ILMN_1676984, DFO versus Bas) was 3,92, the “logFC(D142_ DFO - D142_BAS) CHN1” value (ProbeID ILMN_1678493, DFO versus Bas) was -2,71 and the “logFC(D142_ DFO - D142_BAS) SLC3A2” value (ProbeID ILMN_1679041, DFO versus Bas) was 2,26. For the same molecule, the “logFC(D142_ DFO - D142_BAS) CLK1” value (ProbeID ILMN_1679727, DFO versus Bas) was 2,03, the “logFC(D142_ DFO - D142_BAS) MAFF” value (ProbeID ILMN_1680139, DFO versus Bas) was 2,48 and the “logFC(D142_ DFO - D142_BAS) GPRC5A” value (ProbeID ILMN_1682599, DFO versus Bas) was 2,35. The “logFC(D142_ DFO - D142_BAS) IER3” value (ProbeID ILMN_1682717, DFO versus Bas) was 2,14, the “logFC(D142_ DFO - D142_BAS) RRAD” value (ProbeID ILMN_1683179, DFO versus Bas) was 2,83 and the “logFC(D142_ DFO - D142_BAS) GPT2” value (ProbeID ILMN_1684158, DFO versus Bas) was 2,16. The “logFC(D142_ DFO - D142_BAS) INHBB” value (ProbeID ILMN_1685714, DFO versus Bas) was 2,06, the “logFC(D142_ DFO - D142_BAS) TOP2A” value (ProbeID ILMN_1686097, DFO versus Bas) was -2,19 and the “logFC(D142_ DFO - D142_BAS) COLEC12” value (ProbeID ILMN_1689088, DFO versus Bas) was -3,20. For the same molecule, the “logFC(D142_ DFO - D142_BAS) CXCL12” value (ProbeID ILMN_1689111, DFO versus Bas) was -2,92, the “logFC(D142_ DFO - D142_BAS) PDLIM7” value (ProbeID ILMN_1690125, DFO versus Bas) was -2,43 and the “logFC(D142_ DFO - D142_BAS) CRABP2” value (ProbeID ILMN_1690170, DFO versus Bas) was -2,06. The “logFC(D142_ DFO - D142_BAS) STC2” value (ProbeID ILMN_1691884, DFO versus Bas) was 3,54, the “logFC(D142_ DFO - D142_BAS) PSAT1” value (ProbeID ILMN_1692938, DFO versus Bas) was 3,93 and the “logFC(D142_ DFO - D142_BAS) P4HA1” value (ProbeID ILMN_1693334, DFO versus Bas) was 3,24. For the same molecule, the “logFC(D142_ DFO - D142_BAS) GADD45A” value (ProbeID ILMN_1694075, DFO versus Bas) was 2,63, the “logFC(D142_ DFO - D142_BAS) KIF20A” value (ProbeID ILMN_1695658, DFO versus Bas) was -2,76 and the “logFC(D142_ DFO - D142_BAS) DDIT4L” value (ProbeID ILMN_1696537, DFO versus Bas) was -2,14. For the same molecule, the “logFC(D142_ DFO - D142_BAS) TNFRSF10B” value (ProbeID ILMN_1699265, DFO versus Bas) was 2,74.
